Patent US5834472A (Schering Corporation, priority 1997, dated 1998)

How the values were obtained:
[1] = tested on: Cryptococcus; conditions: aqueous suspensions; cited from earlier work
[2] = water solubility; assay type: physicochemical
[3] = tested on: Candida; conditions: aqueous suspensions; cited from earlier work
[4] = tested on: Aspergillis; conditions: aqueous suspensions; cited from earlier work

SMILES: CCC(C(C)O)n1ncn(-c2ccc(N3CCN(c4ccc(OCC5COC(Cn6cncn6)(c6ccc(F)cc6F)C5)cc4)CC3)cc2)c1=O (single isomer, unassigned; (-)) [antifungal compound]
- antifungal activity against Cryptococcus [1]: potent antifungal activity
- water solubility [2]: extremely low water solubility
- antifungal activity against Candida [3]: potent antifungal activity
- antifungal activity against Aspergillis [4]: potent antifungal activity
